# Measured values taken from PMC9747124 (Clinical and Translational Science, 2022).
# Like-named read-outs stand apart in the source and are kept apart here.
# Key:
# patients with RMS [1] = details: cited from earlier work; for Annualized relapse rate (ARR): 75 mg b.i.d.
# [2] = Population PK model of evobrutinib; assay type: in vivo, human; details: for Increase of bioavailability with food compared with when fasted: population PK model covariate effect
# patients with RMS [3] = details: 75 mg q.d. while fasted; over 24 weeks, maintained through week 48; cited from earlier work
# patients with RMS [4] = assay type: in vivo, human
# [5] = data not shown for high-fat or moderate-fat meal; internal report; cited from earlier work
# [6] = between-participant variability, final PK model
structure (smiles),measurement,setting,value
"C=CC(=O)N1CCC(CNc2ncnc(N)c2-c2ccc(Oc3ccccc3)cc2)CC1 [evobrutinib, Evobrutinib]",Clinical efficacy on any end points compared with placebo,patients with RMS [1]; 25 mg q.d.,did not show clinical efficacy
same,Annualized relapse rate (ARR),patients with RMS [1]; 48-week double-blind period,0.11
same,Annualized relapse rate (ARR),patients with RMS [1]; 108-week period (48-week double-blind plus 60-week open-label extension),0.12
same,"Patients exceeding AUC0-24,SS > 400 ng/ml h",[2]; 75 mg b.i.d. treatment arm in the phase II study,all patients
same,"ω^2 ALAG, Estimate (RSE %)",[2]; [6],0.317 (83.3)
same,"ω^2 CL/F, Estimate (RSE %)",[2]; [6],0.257 (18.1)
same,"ω^2 D1 fasted, Estimate (RSE %)",[2]; [6],0.784 (38.3)
same,"ω^2 D1 fed, Estimate (RSE %)",[2]; [6],0.784 (38.3)
same,"ω^2 Q/F, Estimate (RSE %)",[2]; [6],1.25 (18.2)
same,"ω^2 V2/F, Estimate (RSE %)",[2]; [6],0.566 (32.9)
same,"ω^2 V3/F, Estimate (RSE %)",[2]; [6],1.82 (15.2)
same,"Cov CL/F + ALAG, Estimate (RSE %)","[2]; covariance, final PK model",0.0572 (120)
same,"Cov Q/F + V3/F, Estimate (RSE %)","[2]; covariance, final PK model",1.09 (17.3)
same,Residual variability: Additive error,[2]; final PK model,0.272 ng/mL
same,Residual variability: Proportional error,[2]; final PK model,0.509
same,ALAG (lag time),"[2]; final PK model, week 48",0.197 h
same,K a (absorption rate constant),"[2]; final PK model, week 48",0.793 h⁻¹
same,V3/F (apparent volume of distribution of the peripheral compartment),"[2]; final PK model, week 48",385 L
same,CL/F (apparent clearance),"[2]; final PK model, week 48, value for healthy participants",269 L/h
same,Vd/F,"[2]; human, in vivo",50.8 L
same,AUC(0-t),"[2]; human, in vivo, 75 mg",835 ng·h/mL
same,Cmax,"[2]; human, in vivo, 75 mg",168 ng/mL
same,Increase of bioavailability with food compared with when fasted,[2],about 50%
same,Increase of bioavailability with food compared with when fasted,[2]; listed as Evobrutinib,49%
same,Total cumulative number of T1 Gd+ lesions compared with placebo,patients with RMS [3],reduction
same,"exp(B1), level of ARR for high values of the AUC",patients with RMS [4]; ARR versus exposure model estimate,0.11
same,Mean ARR,patients with RMS [4]; highest three exposure quintiles (starting at an AUC of 356 ng/ml h),≤ 0.14
same,Increase of bioavailability by dosing with food,[5],about 50%
